Data on 30 compounds can be found in patent US9828381B2, “Substituted pyrazolopyrimidines and method of use” (AbbVie Deutschland GmbH & Co. KG, priority 2015, dated 2017).

A word on the EC50: it is the midpoint of the concentration-response curve.

For this assay, the target named is GABA-B receptor (Rattus norvegicus (Rat), UniProt O88871+Q9Z0U4). Nature of the assay: [35S]GTPgS binding assay, rat cortical membranes, in presence of EC25 GABA. Format: biochemical. To be noted: rat brain cortex membranes; in presence of 1 μM GABA (EC25); positive allosteric modulation. The procedure:
Preparation of Rat Brain Membranes for Native Receptor Assays
Membranes from rat brain cortex were prepared as described in detail by Olpe et al. and stored at concentrations of 1.66 mg/mL protein at −80° C. until required. (Olpe, H.-R, et al. Eur J Pharmacol 1990; 187: 27-38).
[^35S] GTPgS Binding Assay
The composition of the assay mixtures [in a final volume of 200 μL in 96-well U-bottom plates (Greiner) was as follows: 50 mM Tris-HCl buffer, pH 7.7, 10 mM MgCl2, 0.2 mM EGTA, 2 mM CaCl2, 100 mM NaCl, 20 µM guanosine 5′-diphosphate (Sigma), 0.3 nM [^35S]GTPgS (1250 Ci/mmol (PerkinElmer)), and the test compounds at increasing concentrations (from 10 nM up to […]), […] of rat cortical membranes, and a concentration of […], that has been observed in previous experiments to correspond to the EC25, a concentration that gives 25% of the maximal response of GABA. The samples were incubated at room temperature for 60 minutes on a shaker. The incubation was stopped by rapid vacuum filtration over glass-fiber filter plates (UniFilter-96 well, GF/B membrane plates, PerkinElmer) using a 96-well plate harvester (TOMTEK© Harvester). The UniFilter plate was washed five times with ice-cold wash buffer (50 mM Tris-HCl buffer, pH 7.7, 10 mM MgCl2, and 100 mM NaCl. After filtration the plate was dried for 90 minutes at 55° C. The plates were closed on the bottom with black sealing membranes, and liquid scintillation cocktail (35 μL, Betaplate Scint, PerkinElmer) was added to each well. After sealing the top of the plate, an additional incubation step of 90 minutes at room temperature followed before measuring the plate. The amount of membrane-bound [^35S]GTPgS was measured using a 96-well plate reader (Microbeta®, PerkinElmer). Nonspecific binding was measured in the presence of unlabeled 10 μM of GTPgS (Millipore) and without GABA. Basal binding was measured in the absence of 1 μM GABA, and maximal binding was measured in the presence of GABA using 1 mM GABA concentrations.
Data analysis. The concentration-response curves of compounds of the present disclosure in the presence of EC25 of GABA-B receptor agonist were generated using the GraphPad Prism® program (GraphPad Software, San Diego, Calif.). Data was normalized using basal binding as 0% and maximal binding as 100%. The curves were fitted by nonlinear regression allowing determination of EC50 values from sigmoidal dose-response curves. Each curve was performed using triplicate sample per date point and 10 concentrations.
A general note: GTPγS resists hydrolysis and so accumulates on activated G proteins.

Sequence of GABA-B receptor (Q9Z0U4 17-960): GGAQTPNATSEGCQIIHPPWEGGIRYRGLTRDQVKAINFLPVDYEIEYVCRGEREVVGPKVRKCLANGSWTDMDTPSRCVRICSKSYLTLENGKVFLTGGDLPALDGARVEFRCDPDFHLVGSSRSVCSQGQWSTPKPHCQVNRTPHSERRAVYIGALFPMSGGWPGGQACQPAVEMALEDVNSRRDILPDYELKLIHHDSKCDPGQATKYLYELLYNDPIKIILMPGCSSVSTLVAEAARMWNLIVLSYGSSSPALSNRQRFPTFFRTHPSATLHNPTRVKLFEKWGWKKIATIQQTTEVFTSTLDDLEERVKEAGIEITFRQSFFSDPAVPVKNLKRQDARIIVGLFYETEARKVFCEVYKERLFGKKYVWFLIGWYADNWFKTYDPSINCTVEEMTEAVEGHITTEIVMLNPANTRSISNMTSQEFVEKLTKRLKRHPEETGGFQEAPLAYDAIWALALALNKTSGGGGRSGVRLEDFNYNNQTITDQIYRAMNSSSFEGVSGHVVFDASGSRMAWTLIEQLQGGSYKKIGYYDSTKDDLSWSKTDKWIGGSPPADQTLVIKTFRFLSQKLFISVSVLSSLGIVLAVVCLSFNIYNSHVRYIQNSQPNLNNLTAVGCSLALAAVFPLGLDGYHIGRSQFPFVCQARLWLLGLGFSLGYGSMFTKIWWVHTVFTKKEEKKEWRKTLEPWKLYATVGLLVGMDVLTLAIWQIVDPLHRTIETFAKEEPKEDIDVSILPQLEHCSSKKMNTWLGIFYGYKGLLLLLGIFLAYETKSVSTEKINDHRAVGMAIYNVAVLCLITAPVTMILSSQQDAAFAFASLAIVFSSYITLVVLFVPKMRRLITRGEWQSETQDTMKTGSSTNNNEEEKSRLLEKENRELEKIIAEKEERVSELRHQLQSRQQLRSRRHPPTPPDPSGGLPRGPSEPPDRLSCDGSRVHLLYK
Sequence of GABA-B receptor (O88871 41-940): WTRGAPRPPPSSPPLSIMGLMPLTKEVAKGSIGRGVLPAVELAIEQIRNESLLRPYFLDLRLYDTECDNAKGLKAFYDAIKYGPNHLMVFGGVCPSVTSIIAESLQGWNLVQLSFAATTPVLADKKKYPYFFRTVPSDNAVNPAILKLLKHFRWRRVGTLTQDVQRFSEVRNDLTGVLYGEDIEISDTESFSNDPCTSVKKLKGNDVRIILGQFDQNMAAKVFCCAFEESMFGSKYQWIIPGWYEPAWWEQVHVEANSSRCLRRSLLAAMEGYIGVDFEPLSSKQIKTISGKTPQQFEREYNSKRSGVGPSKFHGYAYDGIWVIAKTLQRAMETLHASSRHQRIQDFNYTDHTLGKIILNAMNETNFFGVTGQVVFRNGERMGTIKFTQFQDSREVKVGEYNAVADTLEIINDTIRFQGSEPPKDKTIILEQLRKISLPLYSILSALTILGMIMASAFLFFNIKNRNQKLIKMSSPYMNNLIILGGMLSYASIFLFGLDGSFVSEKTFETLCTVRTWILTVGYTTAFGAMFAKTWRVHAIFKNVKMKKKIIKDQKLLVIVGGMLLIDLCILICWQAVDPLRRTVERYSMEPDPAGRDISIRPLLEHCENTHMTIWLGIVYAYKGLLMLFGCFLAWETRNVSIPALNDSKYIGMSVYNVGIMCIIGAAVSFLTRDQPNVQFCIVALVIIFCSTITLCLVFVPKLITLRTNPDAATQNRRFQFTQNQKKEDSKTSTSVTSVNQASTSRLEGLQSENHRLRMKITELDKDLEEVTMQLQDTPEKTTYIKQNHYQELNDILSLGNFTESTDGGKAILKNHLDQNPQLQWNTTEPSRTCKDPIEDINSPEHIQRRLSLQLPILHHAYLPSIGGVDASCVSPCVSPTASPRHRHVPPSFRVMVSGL

Consider `Cc1cc(N2CCCC(F)(F)C2)n2nc(C(C)c3ccc(C(F)(F)F)cc3)cc2n1` (stereo not drawn) [Example 8-17, 7-(3,3-difluoropiperidin-1-yl)-5-methyl-2-{1-[4-(trifluoromethyl)phenyl]ethyl}pyrazolo[1,5-a]pyrimidine], for which the EC50 is 760 nM.
With `Cc1cc(N2CCC(C(N)=O)C2)n2nc(C(C)c3ccc(C(F)(F)F)cc3)cc2n1` (stereo not drawn) [Example 8-22, 1-(5-methyl-2-{1-[4-(trifluoromethyl)phenyl]ethyl}pyrazolo[1,5-a]pyrimidin-7-yl)pyrrolidine-3-carboxamide], the EC50 was 771 nM.
For `Cc1cc(NC2(C(F)(F)F)CC2)n2nc(Cc3ccc(Cl)cc3)cc2n1` [Example 1-15, 2-(4-chlorobenzyl)-5-methyl-N-[1-(trifluoromethyl)cyclopropyl]pyrazolo[1,5-a]pyrimidin-7-amine], the EC50 worked out at 1180 nM.
As for `Cc1cc(N2CCC[C@H](O)C2)n2nc(C(C)c3ccc(Cl)cn3)cc2n1` (stereo partly drawn) [Example 9-3, (3S)-1-{2-[1-(5-chloropyridin-2-yl)ethyl]-5-methylpyrazolo[1,5-a]pyrimidin-7-yl}piperidin-3-ol], the EC50 was 2020 nM.
On to `Cc1cc(N2CCCCC2CCO)n2nc(Cc3cccc(C(F)(F)F)c3)cc2n1` (stereo not drawn) [Example 6-1, 2-(1-{5-methyl-2-[3-(trifluoromethyl)benzyl]pyrazolo[1,5-a]pyrimidin-7-yl}piperidin-2-yl)ethanol], for which the EC50 was 1820 nM.
With `Cc1cc(N2CCCCC2CCO)n2nc(CC34CC5CC(CC(C5)C3)C4)cc2n1` (stereo not drawn) [Example 7-1, 2-{1-[5-methyl-2-(tricyclo[3.3.1.1^3′]dec-1-ylmethyl)pyrazolo[1,5-a]pyrimidin-7-yl]piperidin-2-yl}ethanol], the EC50 turned out to be 1080 nM.
For the compound `Cc1cc(N2CCC[C@@H](O)C2)n2nc(C(C)c3ccc(Cl)cc3)cc2n1` (stereo partly drawn) [Example 2-11, (3R)-1-{2-[1-(4-chlorophenyl)ethyl]-5-methylpyrazolo[1,5-a]pyrimidin-7-yl}piperidin-3-ol], the EC50 amounted to 57 nM.
Take `Cc1cc(N2CCCC(CO)C2)n2nc(C(C)c3ccc(Cl)cn3)cc2n1` (stereo not drawn) [Example 9-1, (1-{2-[1-(5-chloropyridin-2-yl)ethyl]-5-methylpyrazolo[1,5-a]pyrimidin-7-yl}piperidin-3-yl)methanol]: the EC50 turned out to be 1540 nM.
As to `Cc1cc(NC2CC(F)(F)C2)n2nc(C(C)c3ccc(Cl)cn3)cc2n1` (stereo not drawn) [Example 9-2, 2-[1-(5-chloropyridin-2-yl)ethyl]-N-(3,3-difluorocyclobutyl)-5-methylpyrazolo[1,5-a]pyrimidin-7-amine], the concentration giving a half-maximal response (EC50) came to 1600 nM.
As for `Cc1cc(N2CCC2)n2nc(C(C)c3ccc(Cl)cc3)cc2n1` (stereo not drawn) [Example 2-12, 7-(azetidin-1-yl)-2-[1-(4-chlorophenyl)ethyl]-5-methylpyrazolo[1,5-a]pyrimidine], the EC50 came to 2820 nM.
For the compound `Cc1cc(N2CCC3(CC2)COC3)n2nc(C(C)c3ccc(Cl)cc3)cc2n1` (stereo not drawn) [Example 2-9, 2-[1-(4-chlorophenyl)ethyl]-5-methyl-7-(2-oxa-7-azaspiro[3.5]non-7-yl)pyrazolo[1,5-a]pyrimidine], the EC50 was determined as 604 nM.
As for `Cc1cc(N2CCCCC2CO)n2nc(C(C)c3ccc(Cl)cc3)cc2n1` (stereo not drawn) [Example 2-5, (1-{2-[1-(4-chlorophenyl)ethyl]-5-methylpyrazolo[1,5-a]pyrimidin-7-yl}piperidin-2-yl)methanol], the figure is 146 nM.
As for `Cc1cc(N[C@@H](C)C(F)(F)F)n2nc(Cc3ccc(Cl)cc3)cc2n1` [Example 1-18, 2-(4-chlorobenzyl)-5-methyl-N-[(2S)-1,1,1-trifluoropropan-2-yl]pyrazolo[1,5-a]pyrimidin-7-amine], the EC50 came out at 2690 nM.
On to `Cc1cc(N2CCC(F)CC2)n2nc(C(C)c3ccc(C(F)(F)F)cc3)cc2n1` (stereo not drawn) [Example 8-11, 7-(4-fluoropiperidin-1-yl)-5-methyl-2-{1-[4-(trifluoromethyl)phenyl]ethyl}pyrazolo[1,5-a]pyrimidine], for which the EC50 worked out at 378 nM.
Consider `Cc1cc(NC2CC(F)C2)n2nc(C(C)c3ccc(Cl)cn3)cc2n1` (stereo not drawn) [Example 9-8, 2-[1-(5-chloropyridin-2-yl)ethyl]-N-(3-fluorocyclobutyl)-5-methylpyrazolo[1,5-a]pyrimidin-7-amine], for which the 50% effective concentration (EC50) came out at 9300 nM.
With `CC(=O)N[C@@H]1CCN(c2cc(C)nc3cc(C(C)c4ccc(Cl)cc4)nn23)C1` (stereo partly drawn) [Example 2-23, N-[(3R)-1-{2-[1-(4-chlorophenyl)ethyl]-5-methylpyrazolo[1,5-a]pyrimidin-7-yl}pyrrolidin-3-yl]acetamide], the EC50 came out at 2730 nM.
The figure for `Cc1cc(N2CCCC(F)(F)C2)n2nc(Cc3ccc(Cl)cc3)cc2n1` [Example 1-4, 2-(4-chlorobenzyl)-7-(3,3-difluoropiperidin-1-yl)-5-methylpyrazolo[1,5-a]pyrimidine] is 2890 nM; for `Cc1cc(N2CCCCC2CCO)n2nc(Cc3ccc(Cl)cc3)cc2n1` (stereo not drawn) [Example 1-1, 2-{1-[2-(4-chlorobenzyl)-5-methylpyrazolo[1,5-a]pyrimidin-7-yl]piperidin-2-yl}ethanol] it is 1400 nM; for `Cc1cc(N[C@H]2C[C@H](O)C2)n2nc(C(C)c3ccc(Cl)cc3)cc2n1` (relative stereo) [Example 2-19, trans-3-({2-[1-(4-chlorophenyl)ethyl]-5-methylpyrazolo[1,5-a]pyrimidin-7-yl}amino)cyclobutanol] it is 1310 nM.
As for `Cc1cc(N2CCCC(F)(F)C2)n2nc(C(C)c3ccc(Cl)cc3)cc2n1` (stereo not drawn) [Example 2-7, 2-[1-(4-chlorophenyl)ethyl]-7-(3,3-difluoropiperidin-1-yl)-5-methylpyrazolo[1,5-a]pyrimidine], the figure is 185 nM; as for `Cc1cc(N2CCC3(COC3)C2)n2nc(C(C)c3ccc(C(F)(F)F)cc3)cc2n1` (stereo not drawn) [Example 8-3, 5-methyl-7-(2-oxa-6-azaspiro[3.4]oct-6-yl)-2-{1-[4-(trifluoromethyl)phenyl]ethyl}pyrazolo[1,5-a]pyrimidine], 420 nM; as for `Cc1cc(N2CCC[C@@H](O)C2)n2nc(Cc3ccc(Cl)cc3)cc2n1` [Example 1-7, (3R)-1-[2-(4-chlorobenzyl)-5-methylpyrazolo[1,5-a]pyrimidin-7-yl]piperidin-3-ol], 1230 nM.
For the compound `Cc1cc(N2CCC(F)(F)C2)n2nc(C(C)c3ccc(Cl)cn3)cc2n1` (stereo not drawn) [Example 9-5, 2-[1-(5-chloropyridin-2-yl)ethyl]-7-(3,3-difluoropyrrolidin-1-yl)-5-methylpyrazolo[1,5-a]pyrimidine], the EC50 was determined as 1660 nM.
`Cc1cc(N2CCC[C@H](CO)C2)n2nc(Cc3ccc(Cl)cc3)cc2n1` [Example 1-8, {(3S)-1-[2-(4-chlorobenzyl)-5-methylpyrazolo[1,5-a]pyrimidin-7-yl]piperidin-3-yl}methanol]: the EC50 was 1300 nM.
On to `Cc1cc(N2CCC[C@@H](CO)C2)n2nc(Cc3ccc(Cl)cc3)cc2n1` [Example 1-21, {(3R)-1-[2-(4-chlorobenzyl)-5-methylpyrazolo[1,5-a]pyrimidin-7-yl]piperidin-3-yl}methanol], for which the EC50 was determined as 1380 nM.
With `CC(=O)N[C@H]1CCN(c2cc(C)nc3cc(C(C)c4ccc(Cl)cn4)nn23)C1` (stereo partly drawn) [Example 9-11, N-[(3S)-1-{2-[1-(5-chloropyridin-2-yl)ethyl]-5-methylpyrazolo[1,5-a]pyrimidin-7-yl}pyrrolidin-3-yl]acetamide], the EC50 was > 10000 nM.
The figure for `CC(=O)N[C@H]1CCN(c2cc(C)nc3cc(Cc4ccc(Cl)cc4)nn23)C1` [Example 1-17, N-{(3S)-1-[2-(4-chlorobenzyl)-5-methylpyrazolo[1,5-a]pyrimidin-7-yl]pyrrolidin-3-yl}acetamide] is > 10000 nM; for `CC(=O)N[C@@H]1CCN(c2cc(C)nc3cc(C(C)c4ccc(Cl)cn4)nn23)C1` (stereo partly drawn) [Example 9-10, N-[(3R)-1-{2-[1-(5-chloropyridin-2-yl)ethyl]-5-methylpyrazolo[1,5-a]pyrimidin-7-yl}pyrrolidin-3-yl]acetamide] it is > 10000 nM; for `Cc1cc(NC2CC(F)C2)n2nc(C(C)c3ccc(C(F)(F)F)cc3)cc2n1` (stereo not drawn) [Example 8-6, N-(3-fluorocyclobutyl)-5-methyl-2-{1-[4-(trifluoromethyl)phenyl]ethyl}pyrazolo[1,5-a]pyrimidin-7-amine] it is 509 nM.
For `Cc1cc(N2CCCCC2CCO)n2nc(Cc3cccc(Cl)c3)cc2n1` (stereo not drawn) [Example 12-1, 2-{1-[2-(3-chlorobenzyl)-5-methylpyrazolo[1,5-a]pyrimidin-7-yl]piperidin-2-yl}ethanol], the EC50 was determined as 5670 nM.
